Measured values reported in PMC7794231 (2021).

Assays:
[1] = system: c-Myc (DNA, G4) TGAGGGTGGGTAGGGTGGGTAA; experiment: fluorescence lifetime displacement assay (TCSPC); details: 100 mM KCl (K+), 10 mM lithium cacodylate (Li+), pH 7.3, 2 µM DAOTA-M2 displaced, 4 µM c-Myc
[2] = system: ds26 (DNA, duplex) CAATCGGATCGAATTCGATCCGATTG; experiment: fluorescence lifetime (TCSPC); details: 100 mM KCl (K+), 10 mM lithium cacodylate (Li+) (buffer part); Xenopus egg extract 33 µL + 12 µL buffer; 2 µM DAOTA-M2, 44 µM ds26; 21 °C; lifetime 6.1 ns
[3] = system: c-Myc (DNA, G4) TGAGGGTGGGTAGGGTGGGTAA; experiment: fluorescence lifetime (TCSPC); details: 100 mM KCl (K+), 10 mM lithium cacodylate (Li+); pH 7.3; 2 µM DAOTA-M2, 4 µM c-Myc, 20 µM CT-DNA present; lifetime 6.1 to 11.7 ns

SMILES	binding [1]	also measured
N=C(N)c1ccc(-c2cc3ccc(C(=N)N)cc3[nH]2)cc1		binding ([1]; 20 µM CT-DNA present, small lifetime drop): no
NCCOc1cc(C(=O)Nc2cc(OCCN)c3ccccc3n2)nc(C(=O)Nc2cc(OCCN)c3ccccc3n2)c1		binding ([1]; 20 µM CT-DNA present, PDS to 14.4 µM): yes
[Cu+2].[O-]c1cc(OCCN2CCCCC2)ccc1/C=N/c1ccccc1/N=C/c1ccc(OCCN2CCCCC2)cc1[O-]	yes	
[Ni+2].[O-]c1cc(OCCN2CCCCC2)ccc1/C=N/c1ccccc1/N=C/c1ccc(OCCN2CCCCC2)cc1[O-]	yes	
[O-2].[O-]c1cc(OCCN2CCCCC2)ccc1/C=N/c1ccccc1/N=C/c1ccc(OCCN2CCCCC2)cc1[O-].[V+4]	yes	
[O-]c1cc(OCCN2CCCCC2)ccc1/C=N/c1ccccc1/N=C/c1ccc(OCCN2CCCCC2)cc1[O-].[Zn+2]	weak	
c1cc2oc3cccc4c3[c+]3c2c(c1)n(CCN1CCOCC1)c1cccc(c13)n4CCN1CCOCC1		binding [2]: yes; binding [3]: yes
